Data as given in US6391870B2, “Pyrrolo [2,1-b][1,3]benzothiazepines with atypical antipsychotic activity” (Sigma-Tau Industrie Farmaceutiche Riunite S.p.A., priority 1998, dated 2002).
Where two headings read alike, the source gives them in different places.

Key:
[1] = target: muscarinic receptors; type: binding; settings: rat cortex, [3H]QNB; average of three determinations
[2] = target: T1, DA-1 receptors (Rattus norvegicus, UniProt P18901); assay: [3H]SCH 23390 binding to DA-1 receptors (rat striatum); settings: for Ki: [3H]SCH 23390, average ± standard error, read-out: D1 affinity Ki
T1 construct: striatum for DA-1 and DA-2 receptors; from tissue; host or cells: rat striatum membranes
T1 sequence (P18901 whole entry): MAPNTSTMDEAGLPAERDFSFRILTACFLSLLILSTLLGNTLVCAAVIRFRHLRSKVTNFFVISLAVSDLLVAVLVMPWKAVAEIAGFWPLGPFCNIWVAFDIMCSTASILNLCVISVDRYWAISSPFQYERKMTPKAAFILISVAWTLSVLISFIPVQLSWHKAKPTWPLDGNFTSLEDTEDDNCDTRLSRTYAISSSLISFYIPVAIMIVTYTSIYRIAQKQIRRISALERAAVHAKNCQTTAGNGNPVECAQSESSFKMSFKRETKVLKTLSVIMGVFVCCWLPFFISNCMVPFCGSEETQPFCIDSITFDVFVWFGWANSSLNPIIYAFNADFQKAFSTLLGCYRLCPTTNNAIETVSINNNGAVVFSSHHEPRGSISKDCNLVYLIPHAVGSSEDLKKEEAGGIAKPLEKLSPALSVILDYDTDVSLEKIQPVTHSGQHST

[3] = target: T2, DA-2 receptors (Rattus norvegicus, UniProt P61169); assay: [3H]Spiperone binding to DA-2 receptors (rat striatum); settings: stereoselectivity between enantiomers
T2 construct: striatum for DA-1 and DA-2 receptors; from tissue; host or cells: rat striatum membranes
T2 sequence (P61169 whole entry): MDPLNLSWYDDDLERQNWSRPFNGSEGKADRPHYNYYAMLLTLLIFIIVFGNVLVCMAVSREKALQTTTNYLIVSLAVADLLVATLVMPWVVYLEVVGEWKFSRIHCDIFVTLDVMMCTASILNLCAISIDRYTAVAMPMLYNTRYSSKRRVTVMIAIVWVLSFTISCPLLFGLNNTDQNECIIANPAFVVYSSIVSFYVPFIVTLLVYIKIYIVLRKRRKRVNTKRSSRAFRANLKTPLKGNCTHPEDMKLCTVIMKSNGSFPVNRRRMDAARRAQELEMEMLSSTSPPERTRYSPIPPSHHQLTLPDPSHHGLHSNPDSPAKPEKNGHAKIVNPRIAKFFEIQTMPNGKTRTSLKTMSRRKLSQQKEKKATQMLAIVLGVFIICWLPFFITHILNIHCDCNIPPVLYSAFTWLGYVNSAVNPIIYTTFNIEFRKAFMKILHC

[4] = target: T3, DA-3 receptors (Rattus norvegicus, UniProt P19020); assay: [3H]-7-OH-DPAT binding to DA-3 receptors (rat olfactory tubercle); settings: for Ki: [3H]-7-OH-DPAT, average ± standard error
T3 construct: olfactory tubercle for DA-3 receptors; from tissue; host or cells: rat olfactory tubercle membranes
T3 sequence (P19020 whole entry): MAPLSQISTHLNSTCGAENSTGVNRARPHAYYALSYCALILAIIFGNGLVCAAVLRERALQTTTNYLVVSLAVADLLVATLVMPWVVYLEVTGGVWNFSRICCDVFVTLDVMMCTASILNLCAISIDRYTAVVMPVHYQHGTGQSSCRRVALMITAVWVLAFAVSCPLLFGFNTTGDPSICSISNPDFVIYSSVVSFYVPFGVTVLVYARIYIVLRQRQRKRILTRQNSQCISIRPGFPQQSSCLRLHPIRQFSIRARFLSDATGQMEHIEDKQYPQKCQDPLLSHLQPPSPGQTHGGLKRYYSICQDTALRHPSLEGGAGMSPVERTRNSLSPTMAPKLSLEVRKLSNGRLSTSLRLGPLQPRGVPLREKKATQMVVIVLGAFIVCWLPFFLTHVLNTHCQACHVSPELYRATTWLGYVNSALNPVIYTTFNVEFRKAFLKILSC

[5] = tested on: 5-MeO-DMT-induced head twitches in mouse; assay: Antagonism of 5-MeO-DMT-induced head twitches in mouse; type: in vivo; settings: s.c., 30 min before 5-MeO-DMT 10 mg/Kg s.c.
[6] = tested on: catalepsy in rats; settings: male, Wistar, rat, in vivo, sc

| SMILES | Ki [1] [nM] | D1 pKi [2] | Ki [2] [nM] | Times less affinity for the D2 receptor than the opposite enantiomer [3] | D3 pKi [4] | Ki ([4]; read-out: D3 affinity Ki) [nM] | Dosage that determines 50% of the Head-twitching inhibition induced by 5-MeO-DMT [5] [mg/kg] | Time in minutes of insurgence of catalepsy in 100% of the animals [6] [min] | Ki ([4]; D3 affinity Ki) [nM] |
| --- | --- | --- | --- | --- | --- | --- | --- | --- | --- |
| CN1CCN(C2Cn3cccc3Sc3ccc(Cl)cc32)CC1 (racemic) [ST1455, (±)-7-chloro-9-(4-methylpiperazin-1-yl)-9,10-dihydropyrrolo[2,1-b][1,3]benzothiazepine] | 418 |  |  |  |  |  |  |  |  |
| CN1CCN(C2Cn3cccc3Sc3ccc(F)cc32)CC1 (racemic) [ST1456, (±)-7-fluoro-9-(4-methylpiperazin-1-yl)-9,10-dihydropyrrolo[2,1-b][1,3]benzothiazepine] | 2220 |  |  |  |  |  |  |  |  |
| CN1CCN(C2Cn3cccc3Sc3ccc(Cl)cc32)CC1 (single isomer, unassigned) [ST1461] | 514 |  |  |  |  |  |  |  |  |
| CN1CCN(C2Cn3cccc3Sc3ccc(Cl)cc32)CC1 (single isomer, unassigned; (+)) [ST1460, (+)-7-chloro-9-(4-methylpiperazin-1-yl)-9,10-dihydropyrrolo[2,1-b][1,3]benzothiazepine] | 286 |  |  |  |  |  |  |  |  |
| CN1CCN([C@@H]2Cc3ccccc3Sc3ccc(Cl)cc32)CC1 [R-(−)-Octoclothepin] | 155 | 8.69 | 2.02 ± 0.17 | approximately 10 times | 7.68 | 20.9 | 0.089 | 120 |  |
| CN1CCN(C2Cc3ccccc3Sc3ccc(Cl)cc32)CC1 (centres unmarked) [RS-Octoclothepin, 8-chloro-10-(4-methylpiperazino)-10,11-dihydrodibenzo[b,f]thiepin] | 434 | 8.64 | 2.28 ± 0.15 |  | 8.62 | 2.38 |  | 120 |  |
| CN1CCN([C@H]2Cc3ccccc3Sc3ccc(Cl)cc32)CC1 [S-(+)-Octoclothepin] | 749 | 8.71 | 1.97 ± 0.53 |  |  |  |  | 300 | 0.75 |
